In US11542515B2, “Methods and compositions for increasing efficiency of targeted gene modification using oligonucleotide-mediated gene repair” (CIBUS US LLC, priority 2016, dated 2023):
“Also recorded” adds a separate entry of the source. In the oligonucleotide strings, read from the 5' end, every base follows the letter of its sugar. An asterisk marks phosphorothioate; unmarked linkages are phosphodiester. Other units and linkages are bracketed, terminal groups are in braces. A string of capitals states the bases alone. d = 2'-deoxy (DNA)

Columns and labels:
flax calli = assay: Glyphosate tolerance of flax calli (fresh weight); assay type: cell-based, Linum usitatissimum; details: edited callus line Y23 / A23, all glyphosate concentrations tested, p<0.01
Procedure: (§1) Glyphosate tolerance of calli and regenerated plants was assessed in vitro and in the greenhouse, respectively. Individual calli were cloned by cutting and culturing smaller pieces in fresh regeneration medium to increase callus mass. Calli derived from wild type leaf protoplasts were used as negative control. Calli derived from subcultures of individual callus lines were then pooled and broken up into 0.5-1 mm pieces by blending in liquid MS medium (4.33 g/L MS salts, 3% sucrose and 0.1% Morel and Wetmore vitamins) and 0.25 ml of settled callus pieces was inoculated on regeneration medium containing 0, 0.125, 0.25, 0.5, 1.0 or 2.0 mM glyphosate. Treatments were performed in triplicate, and the experiments were repeated three times. Prior to spray tests, regenerated plants were subjected to a hardening period in a growth chamber (Conviron, Winnipeg, MB) under a 16-h photoperiod with day and night temperatures 21° C. and 18° C. respectively. Hardened plants were transferred to the greenhouse for glyphosate treatment. Wild type control and EPSPS edited plants were sprayed with 10.5 mM or 21.0 mM glyphosate (Roundup Pro, Monsanto). Treatment rates were normalized to a 75.7 ai/A (active ingredient per acre) spray volume to replicate field conditions. […] Plants were evaluated and photographed 6 days after the glyphosate treatment to determine herbicide tolerance. […]

flax plants = assay: Glyphosate spray test of regenerated flax plants in the greenhouse; assay type: in vivo, Linum usitatissimum; details: 10.5 or 21.0 mM spray, 6 days after treatment
Procedure: as §1

[1] = system: blue fluorescent protein (BFP) gene; assay: BFP to GFP conversion by GRON, with or without zeocin/phleomycin, in BFP transgenic protoplasts (flow cytometry); assay type: cell-based, Arabidopsis thaliana; details: 250 and 1000 μg/ml, 90 min before GRON
Description: Sommer et al., (Mol Biotechnol. 33:115-22, 2006) describes a reporter system for the detection of in vivo gene conversion that relies upon a single nucleotide change to convert between blue and green fluorescence in green fluorescent protein (GFP) variants. This reporter system was adapted for use in the following experiments using Arabidopsis thaliana as a model species in order to assess efficiency of GRON mediated conversion.
In short, for this and the subsequent examples an Arabidopsis thaliana line with multiple copies of a blue fluorescent protein gene was created by methods known to those skilled in the art (see, e.g., Clough and Brent, 1998). […]
The purpose of this series of experiments is to compare the conversion efficiencies of the phosphothioate (PS) labeled GRONs with 3PS moieties at each end of the GRON to 2′-O-Me or “2OMe” in the presence and absence of a member of the bleomycin family, Zeocin™ to induce DNA breaks. […] GRONs were delivered into Arabidopsis thaliana BFP protoplasts by PEG treatment and BFP to GFP conversion was determined at 24 h post treatment by cytometry. […]
Seventy-two h after transfection, cells were analyzed by cytometry using the Attune® Acoustic Focusing cytometer (Applied Biosystems®) with excitation and detection of emission as appropriate for GFP. […]

[2] = system: blue fluorescent protein (BFP) gene; assay: as above; assay type: cell-based, Arabidopsis thaliana
bfp gene = assay: BFP to GFP conversion by CRISPR plasmid plus GRON in BFP transgenic protoplasts (flow cytometry); assay type: cell-based, Arabidopsis thaliana; details: 72 h
Procedure: BFP transgenic Arabidopsis thaliana protoplasts derived from induced root tissue were seeded on a flat-bottom 96-well plate, at 250,000 cells per well at a cell density of 1×10^7 cells/ml. The CRISPR encoded plasmids contain the mannopine synthase (MAS) promoter driving the Cas9 coding sequence with an rbcSE9 terminator and the Arabidopsis U6 promoter driving the sgRNA with a poly-T10 terminator. The CRISPR plasmids along with GRON were introduced into protoplasts by PEG mediated delivery at a final concentration of 0.05 μg/μl and 0.16 μM respectively. Protoplasts were incubated in the dark at 23° C. for 72 hours, and then they were analyzed by flow cytometer in order to determine the percentage of GFP positive protoplasts within a given treatment.
The CRISPR consists of two components: the plant codon-optimized Streptococcus pyogenes Cas9 (SpCas9) and sgRNA both of which were expressed from the same plasmid. The sgRNA is a fusion of CRISPR RNA (crRNA) and trans-activating crRNA (tracrRNA). The crRNA region contains the spacer sequence used to guide the Cas9 nuclease to the BFP target gene (FIG. 3). 201-mer GRONs targeting BFP with or without wobble bases were used to determine their effect on the rate of BFP to GFP conversion.
(§2) BFP transgenic Arabidopsis thaliana protoplasts derived from induced root tissue were seeded on a flat-bottom 96-well plate, at 250,000 cells per well at a cell density of 1×10^7 cells/ml. […] Protoplasts were incubated in the dark at 23° C. for 72 hours, and then they were analyzed by flow cytometer in order to determine the percentage of GFP positive protoplasts within a given treatment. […]
as §2, with “cytometry” for “cytometer”

accase gene = assay: ACCase conversion in rice protoplasts (NGS); assay type: cell-based, Oryza sativa

In the case of `O=C(O)CNCP(=O)(O)O` [glyphosate], the “fresh weight of calli with T97I and P101A edits versus wild type calli” value (flax calli) is reported as “significantly higher”, the “phenotype of wild type plants” value (flax plants) is reported as “wilted and necrotic phenotype typical of glyphosate toxicity” and the “phenotype of plants with the edited EPSPS gene” value (flax plants; Y23 / A23 plants) is reported as “minimal phenotypic change”.

`Cc1c(N)nc([C@H](CC(N)=O)NC[C@H](N)C(N)=O)nc1C(=O)N[C@H](C(=O)N[C@H](C)[C@@H](O)[C@H](C)C(=O)N[C@H](C(=O)NCCC1=N[C@@H](c2nc(C(=O)NCCCCN=C(N)N)cs2)CS1)[C@@H](C)O)[C@@H](O[C@@H]1O[C@@H](CO)[C@@H](O)[C@H](O)[C@@H]1O[C@H]1O[C@H](CO)[C@@H](O)[C@H](OC(N)=O)[C@@H]1O)c1cnc[nH]1` [zeocin] was tested, and the “effect of antibiotic pre-treatment on BFP to GFP gene editing” value [1] was “increase in BFP to GFP gene editing” and the “effect of zeocin on BFP to GFP conversion” value ([2]; zeocin 1 mg/ml, 90 min on ice prior to PEG treatment with GRON) was “increased BFP to GFP conversion rates”.

With “BFP/41/3PS: BFP GRON with three adjacent PS modifications at each end (sense dG*dC*dT*dGdAdAdGdCdAdCdTdGdCdAdCdGdCdCdGdTdAdGdGdTdAdAdAdCdGdTdGdGdTdCdAdCdGdAdGdGdGdT*dG*dG*dG)” the “BFP to GFP conversion / editing, comparison in words” value (“BFP to GFP conversion / editing” below) (bfp gene) was “more BFP to GFP precise scarless edits”.

With “CG2: BFP antisense 41 nb 3PS modified (antisense dG*dC*dT*dGdAdAdGdCdAdCdTdGdCdAdCdGdCdCdGdTdAdGdGdTdGdAdAdGdGdTdGdGdTdCdAdCdGdA*dG*dG*dG)” the “BFP to GFP conversion / editing” value (bfp gene) was “more efficacious”.

For “CG3: BFP sense 41 nb 3PS modified (sense CGCTCGTGACCACCTTCACCTACGGCGTGCAGTGCTTCAGC; linkages s3 o34 s3 (s phosphorothioate, o phosphodiester), sugars by position and methylation of C not given here)”, the “BFP to GFP conversion / editing” value (bfp gene) was “no statistical difference”.

With phleomycin [reference compound] the “effect of antibiotic pre-treatment on BFP to GFP gene editing” value [1] was “increase in BFP to GFP gene editing; also recorded: dose-dependent increase in GFP positive cells”, the “number of GFP positive cells compared to the BFP/41/NT control” value ([2]; phleomycin 10 μg/mL, GRON BFP/41, 24 h) was “no improvement” and the “BFP to GFP conversion frequency” value ([2]; phleomycin 1000 μg/mL pre-treatment 90 min, GRON BFP/41, 24 h) was 0.14%.

B1: GRON (SEQ ID NO: 79): Cy3/idC GRON targeting the rice accase gene, Example 21 (nucleic acid)
chain: CTGACCTGAACTTGATCTCAATTAACCCTTGCGGTTCCAGAACATTGCCTTTTGCAGTCCTCTCAGCATAGCACTCAATGCGGTCTGGGTTTATCTTGCTTCCAACGACAACCCAAGCCCCTCCTCGTAGCTCTGCAGCCATGGGAATGTAGACAAAGGCAGGCTGATTGTATGTCCTAAGGTTCTCAACAATAGTCGAGCC
modifications: Cy3 label and idC cap; 5′ CY3/ 3′ 3′DMT dC CPG
With B1 the ACCase conversion (accase gene; CRISPR-Cas plasmid plus GRON, 120 h) was 0.026% and the ACCase conversion (accase gene; GRON only, no CRISPR-Cas, 120 hours) was 0.002%.
